For data set [1] the following is noted: GSH buffer solution; cited from earlier work.
The subject of data set [2] is A549 lung cancer cells. Put plainly: SRB colorimetric assay, A549 lung cancer cells, 72 hours. The data set is classed as cell-based, human. The conditions noted are these: for IC50: A549, 72 hours, average ± SD of three curves; for IC50 times lower than cisplatin: A549. As to the method: A549 cells were cultured in RPMI media supplemented with 10% Fetal Bovine Serum and 1% nonessential amino acids. Sub-culturing was carried out every 3-4 days and was completed by removing the supernatant media and treating the adherent cells with 1.0 mL of a 0.25% (w/v) Trypsin/0.5 mM EDTA solution. The cells were then treated for approximately 3 minutes in a 37° C. incubator under a 5% CO2 atmosphere. Trypsinization was stopped by the addition of 7.0 mL of cell culture media, the suspended cells were collected by centrifugation, and the resulting cell pellet was re-suspended in fresh cell culture media. The cells were then diluted 1:4 by volume and incubated in a 37° C. incubator with 5% CO2. Cells were grown to 80-90% confluency prior to being used in the SRB colorimetric assays.
To test the effects of compounds 1-18 on the growth of A549 lung cancer cells, SRB cytotoxicity assays were done as described by Skehan et al. Cells were maintained in RPMI media as described above, collected, and diluted so that cells could be seeded in 96-well plates at a density of 4,000 cells/well. The 96-well plate was incubated overnight at 37° C. under a 5% CO2 atmosphere. Subsequently, sterifiltered DMSO stock solutions of the drugs were added to the wells in various concentrations (0-25 μM) and the 96-well plate was incubated at 37° C. under a 5% CO2 for an additional 72 hours. The supernatant cell culture medium was then removed and the cells were fixed for 1 hour with 10% cold trichloroacetic acid (100 μL per well). The trichloroacetic acid was discarded and the plates were washed 5 times with de-ionized water and air dried. After being stained with 0.4% SRB ([…]) and incubated at room temperature for 10 minutes, the cells were washed 5 times with 1% acetic acid and air dried. The bound SRB was dissolved in 10 mM unbuffered Tris, pH 10.5 ([…]) for 10 minutes at room temperature, and the absorbance at 492 nm was measured using a microplate reader. The percent cell growth was then calculated based upon the absorbance values relative to control samples not containing any drug. Each drug concentration was done in triplicate to yield a percent growth vs. drug concentration curve, and these growth curves were subsequently repeated two additional times. The growth curves from the three experiments were then plotted in GraphPad Prism and best-fit curves were used to generate the IC50 values for each curve.

The test system of data set [3] is GL-26 glioma cells. Put plainly: SRB growth assay, GL-26 glioma cells, 48 hr drug incubation. It counts as cell-based, murine (C57BL/6). The conditions noted are these: Mus musculus, read-out: GL-26 cell growth inhibition. As to the method:
The murine (C57BL/6) glioma cell line, GL-26, which is highly tumorigenic in the C57BL/6 mice. GL-26 cells were cultured in DMEM/F12 supplemented with 10% FCS, 1% penicillin/streptomycin, 1% L-glutamine and 1% non-essential amino acids. Human foreskin fibroblasts (HFFs) were cultured in DMEM/F12 supplemented with 10% FCS and 1% penicillin/streptomycin. Primary murine astrocytes were purified from C57BL/6 neonate brains and cultured in DMEM/F12 supplemented with 10% FCS, 1% non-essential amino acids, 1% Lglutamine, 50 IU/ml penicillin, […] and 10 mM Hepes buffer.
The sulforhodamine B (SRB) cytotoxicity assays were adapted from Skehan et al. (22). Briefly, either HFF, primary astrocytes or GL-26 cells were plated in 96-well plates at a density of 4,000 cells/well in a volume of 100 µL overnight at 37° C. and 5% CO2. DMSO stock solutions of SBP, MSBP or TMZ were used at a concentration range of 0.1-25 μM for 48 hr before the supernatant was discarded and the cells were fixed for 1 hr with 10% cold trichloroacetic acid (100 μL, per well). Cells used in recovery assay received fresh media for 48 hrs following the 48 hr drug incubation. The plate was then washed 5 times with de-ionized water, air dried, and stained with 0.4% SRB for 10 min (50 μL, per well). After washing 5 times in 1% acetic acid and air-drying, bound SRB was dissolved in 10 mM unbuffered Tris base (pH 10.5; 100 μL, per well). Bound SRB was then read by absorbance at 492 nm on a SpectraMax plate reader (Molecular Devices). The percent survival was then calculated based upon the absorbance values relative to control wells (0 μM SBP in 0.1% DMSO).
For orientation: In SRB staining, fixed cells bind dye roughly in proportion to their protein.

Data set [4] deals with GL-26 glioma cells. Put plainly: SRB growth assay, cisplatin/SBP combination. The data set is classed as cell-based, murine (C57BL/6). The conditions noted are these: 0.8 μM cisplatin alone, 48 hours. How it is done: The murine (C57BL/6) glioma cell line, GL-26, which is highly tumorigenic in C57BL/6 mice, were used for these in-vitro experiments. GL-26 cells were cultured in DMEM/F12 supplemented with 10% FCS, 1% penicillin/streptomycin, 1% L-glutamine and 1% non-essential amino acids.
Sulforhodamine B (SRB) cytotoxicity assays were utilized to assess antitumor activity. GL-26 cells were plated in 96 well plates at a density of 4,000 cells/well (in a total volume of 100 µL) and incubated for 24 hours in a humidified atmosphere of 5% CO2 at 37° C. GL-26 cells were then exposed to Cisplatin at 0-25 μM with either 0.1 or 0.4 μM SBP for 48 hours. The supernatant was then discarded and the GL-26 cells were fixed with 10% cold trichloroacetic acid for 1 hour (100 μL/well). The cells were washed 5 times with de-ionized water, air dried, and stained with 0.4% SRB for 10 min (50 μL/well). GL-26 cells were then washed 5 times in 1% acetic acid and allowed to air dry. The bound SRB was dissolved in a 10 mM unbuffered Tris base (pH 10.5; 100 μL per well) and quantified by the absorbance at 492 nm using the SpectraMax plate reader (Molecular Devices). The fraction of cell growth was determined based upon the absorbance values in comparison to the control wells (0 μM SBP in 0.5% DMSO). All cell growth assays were done in a minimum of triplicates.

Data set [5] in a line: Glutathione stability experiments (UV-visible spectra). The data set is classed as physicochemical. To be noted: 5.0×10^−5 M complex, one mole equivalent GSH, phosphate buffer pH 7.4, 15 hours. As to the method:
5.0×10^−3 M stock solutions of compounds 10-18 were prepared in acetonitrile or DMSO, and subsequently diluted in phosphate buffer (0.10M, pH 7.4) to yield a final gold complex concentration of 5.0×10^−5 M. A stock solution of reduced glutathione in phosphate buffer (0.10M, pH 7.4) was used to add one mole equivalent of GSH to the final gold complex solution, and UV-visible spectra of compounds 10-18 were subsequently collected every hour over a 15 hour period.

In the case of `Cc1c(C)c2cccnc2c2ncccc12.[Cl][Au+][Cl]` [[(^5,6-di-methylphen)AuCl2]^+, reference compound], the “stability in the presence of GSH (previous studies)” value in data set [1] is “underwent immediate reduction to gold(0) in the presence of GSH”.
By IC50 is commonly meant the concentration at which inhibition is half-maximal. In the case of `Cc1ccc2ccc3ccc(C)nc3c2n1.[Cl][Au]([Cl])[Cl]` [Compound 12, (2,9-di-methyl-1,10-phenanthroline)AuCl3], half-maximal inhibition in data set [2] (IC50) was put at 1470 ± 210 nM.
Regarding `CCCCc1ccc2ccc3ccc(CCCC)nc3c2n1.[Cl][Au]([Cl])[Cl]` [Compound 11, (2,9-di-n-butyl-1,10-phenanthroline)AuCl3], in data set [2], the “IC50 times lower than cisplatin” value is “approximately 12 times” and the IC50 turned out to be 340 ± 60 nM. Also, the “times more active than the free ligand” value in data set [2] (A549 IC50 ratio) is recorded as “approximately 3 times”.
Take `Cc1cc(-c2ccccc2)nc2c1ccc1ccc(-c3ccccc3)nc12` [Compound 8, 2,9-di-phenyl-4-methtyl-1,10-phenanthroline]: it took 1350 ± 110 nM to reach half-maximal inhibition in data set [2] (IC50).
Turning to `Cc1cc(-c2ccccc2)nc2c1ccc1ccc(-c3ccccc3)nc12.[Cl][Au]([Cl])[Cl]` [Compound 17, (2,9-di-phenyl-4-methtyl-1,10-phenanthroline)AuCl3], in data set [2], the IC50 was determined as 1370 ± 110 nM.
A word on the inhibition: it is how much of the control response was suppressed. Regarding `CCC(C)c1ccc2ccc3cccnc3c2n1` (centres unmarked) [Compound 5, 2-sec-butyl-1,10-phenanthroline], the IC50 in data set [2] (Homo sapiens) is 620 ± 160 nM. Further, in data set [3] (GL26, 6 μM), the inhibition at 6 µM was 0.6 ± 1.2%. Further, in data set [3] (GL26, 25 μM), the inhibition at 25 µM worked out at 24.7 ± 5%.
In the case of `CCC(C)c1ccc2ccc3ccc(C(C)CC)nc3c2n1.[Cl][Au]([Cl])[Cl]` (centres unmarked) [Compound 10, (2,9-di-sec-butyl-1,10-phenanthroline)AuCl3], in data set [1], the “stability in the presence of GSH (previous studies)” value is given as “quite stable in the presence of a GSH buffer solution”. In data set [2], this compound showed an IC50 of 580 ± 150 nM.
For the compound `N.N.[Cl][Pt][Cl]` [cisplatin, [Pt(NH3)2Cl2], reference compound], the IC50 in data set [2] is 4670 ± 210 nM. Also, in data set [4], the “cell growth compared to untreated tumor cells” value is listed as “approximately 78%”.
With `CCC(C)c1ccc2ccc3c(C)cc(C(C)CC)nc3c2n1.[Cl][Au]([Cl])[Cl]` (centres unmarked) [Compound 13, (2,9-di-sec-butyl-4-methyl-1,10-phenanthroline)AuCl3], the midpoint of inhibition in data set [2], the IC50, lay at 4020 ± 320 nM. Besides, the “times less active than the corresponding free ligand” value in data set [2] (A549 IC50 ratio) was “approximately 6 times”.
Consider `c1ccc(-c2ccc3ccc4ccc(-c5ccccc5)nc4c3n2)cc1` [Compound 7, 2,9-di-phenyl-1,10-phenanthroline], for which the IC50 in data set [2] (Homo sapiens) came out at 1870 ± 210 nM.
The same measure, in the same setting: for `Cc1ccc2ccc3ccc(C)nc3c2n1` [Compound 3, 2,9-di-methyl-1,10-phenanthroline] the value was 1350 ± 90 nM; for `CCCCc1ccc2ccc3cccnc3c2n1` [Compound 6, 2-mono-n-butyl-phenanthroline], 2920 ± 470 nM; for `CCCCc1ccc2ccc3ccc(CCCC)nc3c2n1` [Compound 2, 2,9-di-n-butyl-1,10-phenanthroline], 1080 ± 280 nM.
For the compound `CCCCc1ccc2ccc3cccnc3c2n1.[Cl][Au]([Cl])[Cl]` [Compound 15, (2-mono-n-butyl-phenanthroline)AuCl3], in data set [5], the “redox stability in the presence of GSH” value is given as “no reduction to gold(I) or gold(0) occurred”. In addition, in data set [2], the “IC50 times lower than cisplatin” value is reported as “approximately 12 times” and half-maximal inhibition (IC50) was put at 370 ± 90 nM. In addition, the “times more active than the free ligand” value in data set [2] (A549 IC50 ratio) is given as about 8 times.
Consider “(2-mono-sec-butyl-2,2′-bipyridine)AuCl3 [Compound 18]”, for which the “Cell Growth @ 12 μM” value in data set [2] (A549, 12 μM) worked out at 100% Cell Growth @ 12 μM. Further, the “reduction of A549 tumor cell growth” value in data set [2] (concentrations used for compounds 1-8 and 10-17) is recorded as “did not reduce tumor cell growth at any of the concentrations”.
Regarding `[Cl][Au]([Cl])[Cl].c1ccc(-c2ccc3ccc4ccc(-c5ccccc5)nc4c3n2)cc1` [Compound 16, (2,9-di-phenyl-1,10-phenanthroline)AuCl3], the IC50 in data set [2] is 1650 ± 130 nM.
On the same count and under the same terms, with `CCC(C)c1ccc2ccc3cccnc3c2n1.[Cl][Au]([Cl])[Cl]` (centres unmarked) [Compound 14, (2-sec-butyl-1,10-phenanthroline)AuCl3] the figure was 770 ± 70 nM.
Consider `CCC(C)c1ccc2ccc3c(C)cc(C(C)CC)nc3c2n1` (centres unmarked) [Compound 4, 2,9-di-sec-butyl-4-methyl-1,10-phenanthroline], for which, in data set [2] (Homo sapiens), the IC50 came to 700 ± 110 nM.
